From publication PMC4940736 (Scientific Reports, 2016)
Where “and” joins values, the source holds several entries; their conditions need not be identical. Equal entries are not always repeated.

B1: Ebola virus nucleoprotein, residues 36-450 (EBOV NP 36-450) (domain or fragment)
chain: VRQRVIPVYQVNNLEEICQLIIQAFEAGVDFQESADSFLLMLCLHHAYQGDYKLFLESGAVKYLEGHGFRFEVKKRDGVKRLEELLPAVSSGKNIKRTLAAMPEEETTEANAGQFLSFASLFLPKLVVGEKACLEKVQRQIQVHAEQGLIQYPTAWQSVGHMMVIFRLMRTNFLIKFLLIHQGMHMVAGHDANDAVISNSVAQARFSGLLIVKTVLDHILQKTERGVRLHPLARTAKVKNEVNSFKAALSSLAKHGEYAPFARLLNLSGVNNLEHGLFPQLSAIALGVATAHGSTLAGVNVGEQYQQLREAATEAEKQLQQYAESRELDHLGLDDQEKKILMNFHQKKNEISFQQTNAMVTLRKERLAKLTEAITAASLPKTSGHYDDDDDIPFPGPINDDDNPGHQDDDPTDSQ
B2: Marburg virus nucleoprotein core domain (MARV NP, amino acids 19-370) (domain or fragment)
chain: RNKKVILFDTNHQVSICNQIIDAINSGIDLGDLLEGGLLTLCVEHYYNSDKDKFNTSPVAKYLRDAGYEFDVIKNADATRFLDVSPNEPHYSPLILALKTLESTESQRGRIGLFLSFCSLFLPKLVVGDRASIEKALRQVTVHQEQGIVTYPNHWLTTGHMKVIFGILRSSFILKFVLIHQGVNLVTGHDAYDSIISNSVGQTRFSGLLIVKTVLEFILQKTDSGVTLHPLVRTSKVKNEVASFKQALSNLARHGEYAPFARVLNLSGINNLEHGLYPQLSAIALGVATAHGSTLAGVNVGEQYQQLREAAHDAEVKLQRRHEHQEIQAIAEDDEERKILEQFHLQKTEITH

Columns and labels:
[1] = molecular target: T1, EBOV NP (amino acids 36–351) (Zaire ebolavirus, UniProt P18272); type: binding, Ebola virus
[2] = molecular target: T2, MARV NP (amino acids 19–370) (Lake Victoria marburgvirus, UniProt P27588); type: binding, Marburg virus
EBOV NP [3] = molecular target: T3, EBOV NP (Zaire ebolavirus, UniProt P18272); type: binding, Ebola virus
MARV NP [4] = molecular target: T4, MARV NP (Lake Victoria marburgvirus, UniProt P27588); type: binding, Marburg virus
EBOV NP [5] = molecular target: T3, EBOV NP; type: binding, Ebola virus; remark: listed apart in the source
MARV NP [6] = molecular target: T4, MARV NP; type: binding, Marburg virus; remark: listed apart in the source
[7] = molecular target: EBOV NP (residues 36–351) (Zaire ebolavirus, UniProt P18272); type: biochemical, Ebola virus
[8] = molecular target: MARV NP (residues 19–370) (Lake Victoria marburgvirus, UniProt P27588); type: biochemical, Marburg virus
[9] = molecular target: T1, EBOV NP (amino acids 36–351); type: binding, Ebola virus; remark: listed apart in the source
[10] = molecular target: T2, MARV NP (amino acids 19–370); type: binding, Marburg virus; remark: listed apart in the source
[11] = molecular target: oligomeric EBOV NP 36–450 / ssRNA (Zaire ebolavirus, UniProt P18272); test: biochemical
[12] = molecular target: T1, EBOV NP (amino acids 36–351); type: binding, Ebola virus; remark: listed apart in the source
[13] = molecular target: T2, MARV NP (amino acids 19–370); type: binding, Marburg virus; remark: listed apart in the source
SEC = molecular target: the molecule itself; test: SEC
SEC-MALS = molecular target: the molecule itself; test: SEC-MALS

Molecule	S/N ratio (peak intensity protein incubation sample vs control) [1]	S/N ratio (peak intensity protein incubation sample vs control) [2]	Corr response (SPR) (EBOV NP [3]) [RU]	Corr response (SPR) (MARV NP [4]) [RU]	△Tm (EBOV NP [5]) [°C]	△Tm (MARV NP [6]) [°C]	also measured
O=C1C[C@@H](c2ccc(O)cc2)Oc2cc(O[C@@H]3O[C@H](CO)[C@@H](O)[C@H](O)[C@H]3O)ccc21 [GC2, Neoliquiritin]	1.31±0.27	1.87±0.38	2.0	1.1	0.0 ± 0.0	0.2 ± 0.3	Monomer (%) [7]: 100%; Monomer (%) [8]: 66.3%; Oligomer(%) >1000 kDa [8]: 4.0%; Tetramer (%) [8]: 29.7%
O=c1cc(-c2ccc(O)cc2)oc2c([C@@H]3OC[C@H](O)[C@H](O)[C@H]3O)c(O)c([C@@H]3O[C@H](CO)[C@@H](O)[C@H](O)[C@H]3O)c(O)c12 [GC3, Schaftoside]	1.47±0.30	1.67±0.31	2.9	2.8	−0.6 ± 0.1	−0.4 ± 0.3	
O=C(/C=C/c1ccc(O)cc1)c1ccc(O[C@@H]2O[C@H](CO)[C@@H](O)[C@H](O)[C@H]2O)cc1O [GC4, Neoisoliquiritin]	1.46±0.29	1.59±0.41			0.1 ± 0.2	0.2 ± 0.3	
COc1ccc(-c2coc3cc(O[C@@H]4O[C@H](CO)[C@@H](O)[C@H](O)[C@H]4O)ccc3c2=O)cc1 [GC5, Ononin]	1.34±0.31	1.18±0.43			−0.2 ± 0.3	0.0 ± 0.5	
CC1(C)[C@@H](O[C@H]2O[C@H](C(=O)O)[C@@H](O)[C@H](O)[C@H]2O[C@@H]2O[C@H](C(=O)O)[C@@H](O)[C@H](O)[C@H]2O)CC[C@]2(C)[C@H]3C(=O)C=C4[C@@H]5C[C@@](C)(C(=O)O)CC[C@]5(C)CC[C@@]4(C)[C@]3(C)CC[C@@H]12 [GC6, Glycyrrhizin]	1.84±0.12	1.46±0.73			0.1 ± 0.2	−0.2 ± 0.3	
CC1(C(=O)O)CCC2(C)CCC3(C)C(=CC(=O)C4C5(C)CCC(O)C(C)(C)C5CCC43C)C2C1 (stereo not drawn) [GC7, 18β-Glycyrrhetinic acid]	2.62±0.46	2.79±0.34	128	35.8	−9.2 ± 0.4	−1.1 ± 0.1	BF% (fraction of compound associated with the NP protein) [9]: 11.0% ± 1.1%; S/N [9]: 2.7 ± 0.3; BF% (fraction of compound associated with the NP protein) [10]: 16.9% ± 4.1%; S/N [10]: 2.3 ± 0.4; decrease of the protein melting temperature (EBOV NP [5]): 9 °C; Oligomer(%) <1000 kDa [7]: 68.7%; Monomer (%) [8]: 71.0% and 84.5%; Oligomer(%) >1000 kDa [8]: 6.2% and 6.9%; IC50 [11]: ~160 µM
O=C1C[C@@H](c2ccc(O)cc2)Oc2cc(O)ccc21 [GC8, Liquiritigenin]	0.96±0.22	1.28±0.18					
COc1ccc(-c2coc3cc(O)ccc3c2=O)cc1O [GC9, Calycosin]	1.21±0.25	1.60±0.36					
CC1(C)[C@@H](O)CC[C@]2(C)[C@H]3C(=O)C=C4[C@H]5C[C@@](C)(C(=O)O)CC[C@]5(C)CC[C@@]4(C)[C@]3(C)CC[C@@H]12 [GC10, 18α-Glycyrrhetinic acid]	2.62±0.46	2.79±0.34	8.8	5.2	−0.8 ± 0.4	−0.2 ± 0.3	BF% (fraction of compound associated with the NP protein) [9]: 0.1% ± 0.0%; S/N [9]: 1.2 ± 0.1; BF% (fraction of compound associated with the NP protein) [10]: 0.9% ± 0.5%; S/N [10]: 1.8 ± 0.1; Monomer (%) [7]: 64.0%; Oligomer(%) >1000 kDa [7]: 36.0%; Monomer (%) [8]: 63.3%; Oligomer(%) >1000 kDa [8]: 0.5%; Tetramer (%) [8]: 36.2%
O=C(/C=C/c1ccc(O)cc1)c1ccc(O)cc1O [GC11, Isoliquiritigenin]	1.11±0.16	1.08±0.04					
O=C1C[C@@H](c2ccc(O[C@@H]3O[C@H](CO)[C@@H](O)[C@H](O)[C@H]3O)cc2)Oc2cc(O)ccc21 [GC12, Liquiritin]	1.31±0.27	1.87±0.38					
C=CC(C)(C)c1cc(/C=C/C(=O)c2ccc(O)cc2)c(OC)cc1O [GC13, Licochalcone A]	5.61±1.11	6.54±0.52	43.8	29.2	−3.2 ± 0.3	0.7 ± 0.6	BF% (fraction of compound associated with the NP protein) [9]: 0.3% ± 0.0%; S/N [9]: 6.0 ± 1.3; BF% (fraction of compound associated with the NP protein) [10]: 0.1% ± 0.1%; S/N [10]: 11.0 ± 1.9; Monomer (%) [7]: 100%; Monomer (%) [8]: 29.0%; Oligomer(%) >1000 kDa [8]: 2.6%; Tetramer (%) [8]: 68.3%; increase of tetramer formation [8]: > 2 fold
O=C(/C=C/c1ccc(O[C@@H]2O[C@H](CO)[C@@H](O)[C@H](O)[C@H]2O)cc1)c1ccc(O)cc1O [GC14, Isoliquiritin]	0.49±0.02	1.61±0.19					
Liquiritin apioside [GC1]	1.37±0.28	1.85±0.35	3.1	2.0	−0.5 ± 0.2	−0.2 ± 0.3	S/N AVE [12]: 1.07; VIP [12]: 2.03; S/N AVE [13]: 1.53; VIP [13]: 5.68
B1							binding result (SEC): binds
B2							stoichiometry N (SEC-MALS): 4
